Laboratory results from patent US20180155757A1, “IDENTIFICATION OF BACTERIA THAT ARE RESISTANT TO CARBAPENEMS BY MEMBRANE IMPERVIOUSNESS” (BIOMÉRIEUX, priority 2015, published 2018).
Like-named read-outs stand apart in the source and are kept apart here.

How the values were obtained:
Assay in all cases: Etest MIC of indicator carbapenems on MH II agar without/with PMBN
Format in all cases: cell-based
[1] = test system: K. pneumoniae 0404024 (VIM-1 producer)
Procedure: The determinations of antibiotic MIC were carried out on solid culture media with the Etest® method. To do this, Etest® strips (bioMérieux, France) were used: • Etest® Imipenem IM 32, and • Etest® Ertapenem ETP 32, and also solid culture media, differing from one another by virtue of their non-inhibitory concentrations of PMBN.
These solid culture media are prepared in Petri dishes (0=145 mm; V=50 ml) on a base of MH II Agar (Becton Dickinson®, United States), more or less supplemented with PMBN. The PMBN concentrations range from 0 up to concentrations equivalent to one fifth of the MIC of PMBN (⅕ MICPMBN).
Using a swab and the Retro C80™ rota-plater (bioMérieux, France), the culture media were inoculated with the bacteria, originating from an inoculum of 0.5 McFarland, prepared in 0.85% NaCl solution from colonies subcultured the day before on MH II agar.
The various Etest® strips are then deposited on the surface of the culture media. After 16 to 20 hours of incubation at 35° C., the MICS were read.
To do this, imipenem and ertapenem were used as indicator carbapenems. Non-inhibitory concentrations of PMBN, equivalent to concentrations of one tenth ( 1/10), one eighth (⅛) and one fifth (⅕) of the MIC of PMBN, were applied.

[2] = test system: E. cloacae 1204053 (membrane impermeability)
Outline: (§1)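 Etest imipenem/ertapenem/meropenem (IM 32, ETP 32, MP 32). Medium: MH II agar, PMBN 0 to ⅕ MIC. Inoculum: 0.5 McFarland, 0.85% NaCl, swabbed. Read: 16–20 h at 35° C.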

[3] = test system: E. aerogenes 1204050 (membrane impermeability); details: in µg/mL
Outline: as §1

[4] = test system: E. cloacae 1204058 (membrane impermeability); details: in µg/mL
Outline: as §1

[5] = test system: K. pneumoniae 1012142 (KPC-2 producer)
Outline: as §1

[6] = test system: K. pneumoniae 1204039 (membrane impermeability)
Outline: as §1

[7] = test system: K. pneumoniae 1103183 (NDM producer)
Outline: as §1

[8] = test system: K. pneumoniae 1204036 (membrane impermeability)
Outline: as §1

[9] = test system: E. cloacae 1204052 (membrane impermeability)
Outline: as §1

E. coli SAB 100 (porin−) = details: Escherichia coli
Outline: as §1

[10] = test system: Enterobacter aerogenes EA 5 (porin−); details: Klebsiella aerogenes
Outline: as §1

[11] = test system: K. pneumoniae KP 55 (porin−); details: Klebsiella pneumoniae
Outline: as §1

[12] = test system: E. coli 1008078 (VIM producer)
Outline: as §1

[13] = test system: E. cloacae 1109137 (OXA-48 producer)
Outline: as §1

[14] = test system: K. pneumoniae 1204035 (membrane impermeability); details: in µg/mL
Outline: as §1

[15] = test system: E. cloacae 1204153 (membrane impermeability); details: in µg/mL
Outline: as §1

[16] = test system: Enterobacter aerogenes EA 27 (porin−); details: Klebsiella aerogenes, read-out: MIC
Outline: as §1

E. coli SAB 108 (porin−) = details: Escherichia coli
Outline: as §1

`C[C@@H](O)[C@H]1C(=O)N2C(C(=O)O)=C(SCCN=CN)C[C@H]12` [IM, imipenem] gave an MIC ([1]; [PMBN] 0) of 64 µg/mL, an MIC ([1]; [PMBN] MIC/5) of 64 µg/mL and an MIC ([1]; [PMBN] MIC/8) of 64 µg/mL. For the same compound, the MIC ([1]; [PMBN] MIC/10) was 64 µg/mL, the MIC ([2]; [PMBN] 0, Table 4a) was 3 µg/mL and the MIC ([2]; [PMBN] 100, Table 4a) was 3 µg/mL. For the same compound, the MIC ([2]; [PMBN] 200, Table 4a) was 3 µg/mL, the MIC ([2]; [PMBN] 300, Table 4a) was 3 µg/mL and the MIC ([3]; [PMBN] 0, Table 4a) was >32. For the same compound, the MIC ([3]; [PMBN] 100, Table 4a) was >32, the MIC ([3]; [PMBN] 200, Table 4a) was >32 and the MIC ([3]; [PMBN] 300, Table 4a) was >32. The MIC ([4]; [PMBN] 0, Table 4a) was >32, the MIC ([4]; [PMBN] 100, Table 4a) was 12 and the MIC ([4]; [PMBN] 200, Table 4a) was 4. For the same compound, the MIC ([4]; [PMBN] 300, Table 4a) was 3, the MIC ([5]; [PMBN] 0, Table 4a) was > 32 µg/mL and the MIC ([5]; [PMBN] 100, Table 4a) was > 32 µg/mL. The MIC ([5]; [PMBN] 200, Table 4a) was > 32 µg/mL, the MIC ([5]; [PMBN] 300, Table 4a) was > 32 µg/mL and the MIC ([6]; [PMBN] 0, Table 4a) was 0.38 µg/mL. It also gave an MIC ([6]; [PMBN] 100, Table 4a) of 0.38 µg/mL, an MIC ([6]; [PMBN] 200, Table 4a) of 0.38 µg/mL and an MIC ([6]; [PMBN] 300, Table 4a) of 0.38 µg/mL. The MIC ([7]; [PMBN] 0, Table 4a) was 24 µg/mL, the MIC ([7]; [PMBN] 100, Table 4a) was > 32 µg/mL and the MIC ([7]; [PMBN] 200, Table 4a) was > 32 µg/mL. It also gave an MIC ([7]; [PMBN] 300, Table 4a) of 6 µg/mL, an MIC ([8]; [PMBN] 0, Table 4a) of 2 µg/mL and an MIC ([8]; [PMBN] 100, Table 4a) of 2 µg/mL. The MIC ([8]; [PMBN] 200, Table 4a) was 2 µg/mL, the MIC ([8]; [PMBN] 300, Table 4a) was 1.5 µg/mL and the MIC ([9]; [PMBN] 0, Table 4a) was 3 µg/mL. It also gave an MIC ([9]; [PMBN] 100, Table 4a) of 3 µg/mL, an MIC ([9]; [PMBN] 200, Table 4a) of 2 µg/mL and an MIC ([9]; [PMBN] 300, Table 4a) of 1.5 µg/mL. The MIC (E. coli SAB 100 (porin−); [PMBN] 0) was 0.5 µg/mL, the MIC (E. coli SAB 100 (porin−); [PMBN] 50 μg/ml) was 0.38 µg/mL and the MIC (E. coli SAB 100 (porin−); [PMBN] 100 μg/ml) was 0.25 µg/mL. For the same compound, the MIC (E. coli SAB 100 (porin−); [PMBN] 150 μg/ml) was 0.19 µg/mL, the MIC (E. coli SAB 100 (porin−); [PMBN] 200 μg/ml) was 0.19 µg/mL and the MIC ([10]; E. aerogenes EA 5 (porin−), [PMBN] 0, Table 4) was 6 µg/mL. For the same compound, the MIC ([10]; E. aerogenes EA 5 (porin−), [PMBN] 50 μg/ml) was 4 µg/mL, the MIC ([10]; E. aerogenes EA 5 (porin−), [PMBN] 100 μg/ml) was 4 µg/mL and the MIC ([10]; E. aerogenes EA 5 (porin−), [PMBN] 150 μg/ml) was 4 µg/mL. The MIC ([10]; E. aerogenes EA 5 (porin−), [PMBN] 200 μg/ml) was 3 µg/mL, the MIC ([10]; EA 5 (porin−), [PMBN] 0, Table 2) was 4 µg/mL and the MIC ([10]; EA 5 (porin−), [PMBN] MIC/5) was 2 µg/mL. For the same compound, the MIC ([10]; EA 5 (porin−), [PMBN] MIC/8) was 2 µg/mL, the MIC ([10]; EA 5 (porin−), [PMBN] MIC/10) was 2 µg/mL and the MIC ([11]; [PMBN] 0) was 0.38 µg/mL. The MIC ([11]; [PMBN] 50 μg/ml) was 0.25 µg/mL, the MIC ([11]; [PMBN] 100 μg/ml) was 0.25 µg/mL and the MIC ([11]; [PMBN] 150 μg/ml) was 0.25 µg/mL. It also gave an MIC ([11]; [PMBN] 200 μg/ml) of 0.19 µg/mL, an MIC ([12]; [PMBN] 0, Table 4a) of 0.38 µg/mL and an MIC ([12]; [PMBN] 100, Table 4a) of 1.5 µg/mL. The MIC ([12]; [PMBN] 200, Table 4a) was 0.75 µg/mL, the MIC ([12]; [PMBN] 300, Table 4a) was 0.38 µg/mL and the MIC ([13]; [PMBN] 0, Table 4a) was 1.5 µg/mL. It also gave an MIC ([13]; [PMBN] 100, Table 4a) of 4 µg/mL, an MIC ([13]; [PMBN] 200, Table 4a) of 2 µg/mL and an MIC ([13]; [PMBN] 300, Table 4a) of 1.5 µg/mL. The MIC ([14]; [PMBN] 0, Table 4a) was 1.5, the MIC ([14]; [PMBN] 100, Table 4a) was 0.75 and the MIC ([14]; [PMBN] 200, Table 4a) was 0.5-0.75. The MIC ([14]; [PMBN] 300, Table 4a) was 0.5-1, the MIC ([15]; [PMBN] 0, Table 4a) was 4 and the MIC ([15]; [PMBN] 100, Table 4a) was 4. It also gave an MIC ([15]; [PMBN] 200, Table 4a) of 2, an MIC ([15]; [PMBN] 300, Table 4a) of 4 and an MIC ([16]; E. aerogenes EA 27 (porin−), [PMBN] 0, Table 4) of 12 µg/mL. It also gave an MIC ([16]; E. aerogenes EA 27 (porin−), [PMBN] 50 μg/ml) of 6 µg/mL, an MIC ([16]; E. aerogenes EA 27 (porin−), [PMBN] 100 μg/ml) of 3 µg/mL and an MIC ([16]; E. aerogenes EA 27 (porin−), [PMBN] 150 μg/ml) of 3 µg/mL. It also gave an MIC ([16]; E. aerogenes EA 27 (porin−), [PMBN] 200 μg/ml) of 3 µg/mL, an MIC ([16]; EA 27 (porin−), [PMBN] 0, Table 2) of 8 µg/mL and an MIC ([16]; EA 27 (porin−), [PMBN] MIC/5) of 0.03 µg/mL. It also gave an MIC ([16]; EA 27 (porin−), [PMBN] MIC/8) of 0.06 µg/mL, an MIC ([16]; EA 27 (porin−), [PMBN] MIC/10) of 8 µg/mL and an MIC (E. coli SAB 108 (porin−); [PMBN] 0) of 0.75 µg/mL. The MIC (E. coli SAB 108 (porin−); [PMBN] 50 μg/ml) was 0.38 µg/mL, the MIC (E. coli SAB 108 (porin−); [PMBN] 100 μg/ml) was 0.25 µg/mL and the MIC (E. coli SAB 108 (porin−); [PMBN] 150 μg/ml) was 0.25 µg/mL. The MIC (E. coli SAB 108 (porin−); [PMBN] 200 μg/ml) was 0.19 µg/mL.
